US8470736B2, “Turfgrass quality” (Syngenta Crop Protection, LLC, priority 2008, dated 2013)

How the values were obtained:
Assay type in all cases: in vivo
[1] = system: bentgrass (Agrostis palustris) variety A1; test: Colour (greenness) assessment, Example 2; details: TXP 0 g ai/ha
[2] = system: bentgrass (Agrostis palustris) variety Crenshaw; test: Turfgrass colour assessment, Example 1; details: 43 DA-A (17 DA-B)
Description: (§1) Compositions comprising methyl jasmonate (as a SL formulation, purchased from Fischer), trinexapac-ethyl (in the form of Primo MAXX®), or both (as a tank mix) were tested at various rates for effects on bentgrass (Agrostis palustris) variety Crenshaw. All treatments included the adjuvant NIS, at 0.25% v/v. Assessments of percentage injury to the turfgrass, and turfgrass quality (on a standard scale of 1 to 9) were made at various time intervals after treatment.

[3] = system: bentgrass (Agrostis palustris) variety Crenshaw; test: Turfgrass quality assessment, Example 1
Description: as §1

[4] = system: bentgrass (Agrostis palustris) variety A1; test: Colour (greenness) assessment, Example 2; details: jasmonic acid 0 g ai/ha
Description: Compositions comprising methyl jasmonate (purchased from Aldrich), trinexapac-ethyl (in the form of Primo MAXX® 120EC), or both (as a tank mix) were tested at various rates for effects on bentgrass (Agrostis palustris) variety A1. Assessments of greenness were made at 5 and 12 days after the second treatment.

[5] = system: bentgrass (Agrostis palustris) variety Crenshaw; test: Percentage injury to the turfgrass, Example 1; details: TXP 96 g ai/ha, methyl jasmonate 0 g ai/ha
Description: Compositions comprising methyl jasmonate (as a SL formulation, purchased from Fischer), trinexapac-ethyl (in the form of Primo MAXX®), or both (as a tank mix) were tested at various rates for effects on bentgrass (Agrostis palustris) variety Crenshaw. All treatments included the adjuvant NIS, at 0.25% v/v.

Q: What does the source list for `CC/C=C\C[C@H]1C(=O)CC[C@@H]1CC(=O)OC` [Methyl jasmonate only, methyl (1R,2R)-3-Oxo-2-(2Z)-2-pentenyl-cyclopentaneacetate]?
A: Greenness (scale of 1-10 by comparison with the untreated control) ([1]; jasmonic acid 168 g ai/ha, 5 DA-B): 0.0; Greenness (scale of 1-10 by comparison with the untreated control) ([1]; jasmonic acid 168 g ai/ha, 12 DA-B): 0.5; Greenness (scale of 1-10 by comparison with the untreated control) ([1]; jasmonic acid 336 g ai/ha, 5 DA-B): 0.0; Greenness (scale of 1-10 by comparison with the untreated control) ([1]; jasmonic acid 336 g ai/ha, 12 DA-B): 0.0; Greenness (scale of 1-10 by comparison with the untreated control) ([1]; jasmonic acid 672 g ai/ha, 5 DA-B): 0.0; Greenness (scale of 1-10 by comparison with the untreated control) ([1]; jasmonic acid 672 g ai/ha, 12 DA-B): 0.0; Colour (scale: 1 poor to 9 excellent) ([2]; TXP 0 g ai/ha, methyl jasmonate 168 g ai/ha): 7.2; Colour (scale: 1 poor to 9 excellent) ([2]; TXP 0 g ai/ha, methyl jasmonate 336 g ai/ha): 7.2; Colour (scale: 1 poor to 9 excellent) ([2]; TXP 0 g ai/ha, methyl jasmonate 670 g ai/ha): 7.0; Quality (scale: 1 poor to 9 excellent) ([3]; TXP 0 g ai/ha, methyl jasmonate 168 g ai/ha, 33 DA-A (7 DA-B)): 7.1; Quality (scale: 1 poor to 9 excellent) ([3]; TXP 0 g ai/ha, methyl jasmonate 168 g ai/ha, 43 DA-A (17 DA-B)): 7.2; Quality (scale: 1 poor to 9 excellent) ([3]; TXP 0 g ai/ha, methyl jasmonate 168 g ai/ha, 56 DA-A (30 DA-B)): 7.0; Quality (scale: 1 poor to 9 excellent) ([3]; TXP 0 g ai/ha, methyl jasmonate 336 g ai/ha, 33 DA-A (7 DA-B)): 7.0; Quality (scale: 1 poor to 9 excellent) ([3]; TXP 0 g ai/ha, methyl jasmonate 336 g ai/ha, 43 DA-A (17 DA-B)): 7.2; Quality (scale: 1 poor to 9 excellent) ([3]; TXP 0 g ai/ha, methyl jasmonate 336 g ai/ha, 56 DA-A (30 DA-B)): 7.0; Quality (scale: 1 poor to 9 excellent) ([3]; TXP 0 g ai/ha, methyl jasmonate 670 g ai/ha, 33 DA-A (7 DA-B)): 6.9; Quality (scale: 1 poor to 9 excellent) ([3]; TXP 0 g ai/ha, methyl jasmonate 670 g ai/ha, 43 DA-A (17 DA-B)): 7.0; Quality (scale: 1 poor to 9 excellent) ([3]; TXP 0 g ai/ha, methyl jasmonate 670 g ai/ha, 56 DA-A (30 DA-B)): 7.0

Q: What does the source list for `CCOC(=O)C1CC(=O)C(=C(O)C2CC2)C(=O)C1` (stereo not shown) [Trinexapac-ethyl only, trinexapac-ethyl]?
A: Greenness (scale of 1-10 by comparison with the untreated control) ([4]; TXP 57 g ai/ha, 5 DA-B): 0.0; Greenness (scale of 1-10 by comparison with the untreated control) ([4]; TXP 57 g ai/ha, 12 DA-B): 0.0; Greenness (scale of 1-10 by comparison with the untreated control) ([4]; TXP 96 g ai/ha, 5 DA-B): 3.5; Greenness (scale of 1-10 by comparison with the untreated control) ([4]; TXP 96 g ai/ha, 12 DA-B): 3.5; Colour (scale: 1 poor to 9 excellent) ([2]; TXP 96 g ai/ha, methyl jasmonate 0 g ai/ha): 7.3; Quality (scale: 1 poor to 9 excellent) ([3]; TXP 96 g ai/ha, methyl jasmonate 0 g ai/ha, 33 DA-A (7 DA-B)): 7.2; Quality (scale: 1 poor to 9 excellent) ([3]; TXP 96 g ai/ha, methyl jasmonate 0 g ai/ha, 43 DA-A (17 DA-B)): 7.4; Quality (scale: 1 poor to 9 excellent) ([3]; TXP 96 g ai/ha, methyl jasmonate 0 g ai/ha, 56 DA-A (30 DA-B)): 7.0; Injury (%) ([5]; 8 DA-A): 5%; Injury (%) ([5]; 14 DA-A): 7%
